Laboratory results from paper PMC4979516, “Quinazoline-based tricyclic compounds that regulate programmed cell death, induce neuronal differentiation, and are curative in animal models for excitotoxicity and hereditary brain disease” (Cell Death Discovery, 2015).
“Also recorded” adds a separate entry of the source.

B1: NGF: mouse NGF, 2.5S from Promega; classical agent to induce neuronal differentiation of PC12 cells (protein, UniProt P01139 122-241, looked up)
Beta-nerve growth factor: SSTHPVFHMGEFSVCDSVSVWVGDKTTATDIKGKEVTVLAEVNINNSVFRQYFFETKCRASNPVESGCRGIDSKHWNSYCTTTHTFVKALTTDEKQAAWRFIRIDTACVCVLSRKATRRG

How the values were obtained:
[1] = tested on: R6-2 mice; test: R6-2 transgenic mouse model for Huntington disease (lifespan, behavior); assay type: in vivo; details: for Week of age until which 50% of treated R6-2 mice were still alive: 7.5 mg/kg s.c. daily 5 days per week, vehicle: 11th week (2-Cl-MGV-1 study), 10th week (2-Cl-MGV-2 study); for Uncontrollable tremor activity of R6-2 mice: 7.5 mg/kg s.c., data not shown; for Effect on behavior and lifespan of R6-2 mice: pilot studies, s.c. daily 5 days per week, MGV-1 15 mg/kg, PK 11195 15 mg/kg, MGV-2 15 and 7.5 mg/kg
From the text: Huntington disease in humans is a hereditary disease including neurodegeneration leading to degradation in motor performance, continual involuntary movements, tremors, cardiovascular and respiratory impairments, and finally leading to death of the patients having the disease.[88] For this study, R6-2 mice (~120 CAG repeats B6CBA-Tg(HDexon1)62 Gpb/3J) mice were used as a transgenic mouse model for Huntington disease. For this purpose, mice obtained from the Jackson Laboratory were bred. In particular, males hemizygous for Tg(HDexon1)62 Gpb, and females from the wild-type background strain B6CBAF1/J, were bred according to the protocol of Jackson Laboratory.
For tests of drug efficacy, male offspring hemizygous for Tg(HDexon1)62 Gpb were used to determine drug effect on lifespan, motor activity, and general well-being of the animals. Drug treatment for this study consisted of daily (5 continuous days per week) subcutaneous injections in the neck area of mice with 20 μl of: the drug vehicle DMSO (vehicle control), 2-Cl-MGV-1(7.5 mg/kg) and 2-Cl-MGV-2 (7.5 mg/kg). […] Quantities were used according to previous studies regarding TSPO ligands[48] and adapted depending on the findings in the course of the pilot studies. The treatments were given until the animals died a natural death. Behavioral experiments included distance covered in an open field apparatus,[89] freezing,[89] and balance on a rotor-rod.[90] Spontaneous tremor activity was evaluated using a Hamilton–Kinder sensor in a soundproof ventilated apparatus (Kinder Scientific). The assays for locomotor activity, tremors, and body weight were performed on a weekly basis, together with evaluation of the well-being of the mice. Finally, the day of death was noted. As lifespan data were most pronounced, these are presented in the present description of the results. No adverse effects of any of the drug treatments were noted, neither for specific tests, nor for general observations. Importantly, DMSO had no effect by itself as compared with naive mice or saline-injected mice with various behavioral assays.[20]

[2] = target: T1, 18 kDa translocator protein (TSPO) (Rattus norvegicus, UniProt P16257); test: TSPO binding, displacement of [3H]PK 11195 in rat kidney membranes
T1 construct: 400 μl of homogenized rat kidney membranes (5 mg of homogenate/ml); from tissue; host or cells: rat kidney (homogenized membranes)
Experimental: After incubation for 60 min at 4 °C, samples were filtered under vacuum over Whatman GF/C filters and washed three times with 5 ml of 50 mM Tris-HCl buffer, pH 7.4. The filters were incubated in CytoScint (MP Biomedicals) and radioactivity was measured after 12 h with a 1600 CA Tri-Carb liquid scintillation analyzer (Packard). Inhibitory constant (Ki) values were calculated by the equation Ki=IC50/(1+C/Kd), where C=[^3H]

[3] = tested on: U118MG cells; test: LDH cytotoxicity assay, glutamate-induced cell death of U118MG cells; details: for Lethal effects of the compound (LDH): compound 10-100 μM by itself or with 35 mM glutamate; for Protection against glutamate-induced cell death (LDH): 35 mM glutamate, compound 10-100 μM, 24 h pretreatment
Experimental: (1) For U118MG cells, glutamate at a concentration of 35 mM was applied with or without MGV-1. As discussed, glutamate levels in normal healthy brain tissue can average 15 mM, and these levels can be doubled in diseased brain tissue, whereas in cell organelles glutamate levels can be as high as 250 mM (as discussed). […] In more detail, U118MG cells were seeded, 2×10^5 cells per well of 6-well plates and 6×10^3 cells per well of 96-well plates. Twenty-four hours after seeding, U118MG cells were pretreated with MGV-1 (or one of the other compounds) at various concentrations from 0.1 nM–100 μM. Twenty-four hours after the pretreatment, the cells were exposed to 35 mM of glutamate. […] The negative control was vehicle, that is, ethanol with a final concentration of 1%. […] The positive control was exposure to 35 mM of glutamate alone (with 200 μM of glycine).
Wells of 96-well plates were with 6000 cells per well and treated according the protocol presented above. We used the Cytotoxicity Detection Kit (LDH) (Roche Pharmacuticals) according to the manufacturer’s instructions. When cell plasma membranes are damaged, the cytoplasmic enzyme LDH is released into the medium. The amount of formazan formed is proportional to the amount of LDH released.[77] The resulting color intensity is proportional to the number of damaged cells. Absorbance at 492 nm with reference at 690 nm was measured with the Spectrophotometer Zenyth 200 (Anthos) and the results were calculated and normalized according to the formula presented by the manufacturer.

[4] = tested on: PC12 cells strain #1 (polygonal cells); test: Neuronal differentiation (neurite sprouting) of PC12 strain #1; assay type: cell-based, rat; details: strain #1, only polygonal cells
[5] = tested on: NeuN expression in PC12 cells strain #3; test: Western blot of NeuN in PC12 strain #3; assay type: cell-based, rat; details: PC12 strain #3, versus vehicle control
Experimental: The relative protein levels of TSPO and other proteins related to neurodifferentiation (including β-actin, NeuN, tubulin-3β), were assayed by immunoblotting with the aid electrophoresis through 12% SDS-polyacrylamide gel, according to previously described methods.[71] A priori, general protein levels were measured by the method of Bradford using BSA as a standard.[75] After electrophoresis, the gels were subjected to electrophoretic transfer to nitrocellulose membranes. Then, the membranes were blocked for 1 h in 5% non-fat milk in 62.5 mM sodium phosphate buffer, pH 7.4, containing 100 mM NaCl, and 0.1% (v/v) Tween-20 (PBS-T) and then incubated for 2 h or overnight at 4 °C with the appropriate antibodies: anti-tubulin-3β 1 : 10 000, anti-NeuN 1 : 1000, anti β-actin 1 : 15 000, and anti-TSPO 1 : 10 000.[73] After washing with TBS-T, the membranes were incubated with IgG secondary antibody linked to horseradish peroxidase (anti-rabbit IgG 1 : 20 000, anti-mouse IgG 1 : 10 000, as appropriate, from Jackson Immunologicals, West Grove, PA, USA) in TBS-T at room temperature. Binding of antibodies to the membrane was detected with the EZ-ECL-detection reagent (Biological Industries), using the ImageQuant LAS 4010 apparatus and Totallab Quant quantitative image analysis of Totallab (Newcastle upon Tyne, England).

[6] = tested on: U118MG cells; test: Mitochondrial ROS / cardiolipin oxidation (NAO) assay in U118MG cells exposed to glutamate; assay type: cell-based, human; details: 25 μM compound, 35 mM glutamate
From the text: Cardiolipin is present in the inner mitochondrial membrane, at the contact sites with the outer mitochondrial membrane. By application of NAO, we assayed cardiolipin peroxidation as an indication of mitochondrial ROS generation, as described previously.[71] NAO binds with high affinity to non-oxidized cardiolipin in a 2 : 1 ratio, but with less affinity to oxidized cardiolipin, the latter which is reflected by lower levels of green NAO fluorescence.[78] For our study, cells were collected and centrifuged at 1200×g for 5 min, 4 °C. Cell pellets were re-suspended in 0.5 ml of 0.1 μM NAO and incubated for 30 min at 37 °C in the dark. Then, the cells were washed once with 0.5 ml PBS and transferred into 5 ml FALCON FACS tubes and analyzed with the aid of a BD FACSCalibur flow cytometer using CellQuest software (BD Biosciences, Franklin Lakes, NJ, USA).

[7] = tested on: U118MG cells; test: Mitochondrial membrane potential (JC-1) assay in U118MG cells exposed to glutamate; assay type: cell-based, human; details: 25 μM compound, 35 mM glutamate
From the text: JC-1 was used to assay changes in Δψm, as described previously.[71],[79] Owing to charges distributed along JC-1 molecules, they pass unimpaired (charged) mitochondrial membranes and enter the mitochondrial matrix. There the J-molecules form J-aggregates, which emit at 590 nm (orange–red fluorescence). […] The monomers emit at 527 nm (green fluorescence). A decrease in the red–green fluorescence intensity ratio is an indication for mitochondrial depolarization. As a positive control, the proton ionophore carbonyl cyanide m-chlorophenylhydrazone was used as described previously.[71] Cells were collected and prepared for suspension in 10 μg/ml of JC-1 solution in PBS. After incubation at 37 °C for 30 min in the dark, the cells were washed with 0.5 ml of PBS, and the cell suspensions were analyzed with the BD FACSCalibur flow cytometer.

[8] = tested on: PC12 cells; test: Neuronal differentiation of PC12 cells, strain not specified; assay type: cell-based, rat; details: agent by itself; MGV-1 50 μM
Experimental: For our newly developed differentiation method by MGV-1 in combination with glutamate, PC12 cells were plated onto poly-L-lysine coated culture plates and Petri dishes at a relatively low density (5.2×10^3 cells/cm^2 for six-well plates and 3.6×10^3 cells/cm^2 for Petri dishes), in DMEM medium containing 8% heat-inactivated FBS and 8% horse serum. […] Exposure to vehicle alone (culture medium with 1% of ethanol) was used as the control.
The major and determining indication of neural differentiation of PC12 cells is neurite development.[23],[80] […] The number of differentiated cells was determined by visual examination of the captured fields. In particular, a line was drafted at half height of the image and the cell bodies crossed by the line were further analyzed regarding differentiation. […] Cells with at least one identifiable neurite with a length at least equal to the cell body diameter were scored, and their number expressed as a percentage of the total number of cells crossed by said line. In addition, for each of these cells, the length of the longest neurite was determined (using AxioVision Image software, Zeiss). […]

T1 sequence (P16257 whole entry): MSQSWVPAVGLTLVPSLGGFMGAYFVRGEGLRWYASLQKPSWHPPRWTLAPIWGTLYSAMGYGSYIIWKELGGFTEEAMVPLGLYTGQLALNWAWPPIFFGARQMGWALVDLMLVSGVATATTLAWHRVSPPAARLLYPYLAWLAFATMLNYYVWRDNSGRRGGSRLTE

| Molecule | Ki [2] [µM] | Lethal effects of the compound (LDH) [3] | Protection against glutamate-induced cell death (LDH) [3] | further results |
| --- | --- | --- | --- | --- |
| CN(C)C(=O)Oc1nc(-c2ccccc2Cl)nc2ccccc12 [2-Cl-MGV-1, 2-(2-chlorophenyl)quinazolin-4-yl dimethylcarbamate] | 0.825 ± 0.315 | very little lethality by itself at any concentration; also recorded: shows the least lethal effects when applied just by itself |  | Week of age until which 50% of treated R6-2 mice were still alive [1]: 12 week; Uncontrollable tremor activity of R6-2 mice [1]: reduction of uncontrollable tremor activity |
| CCN(C)C(=O)Oc1nc(-c2ccccc2Cl)nc2ccccc12 [2-Cl-MGV-2, 2-(2-chlorophenyl)quinazolin-4-yl ethyl(methyl)carbamate] | 0.08 ± 0.011 | undesired lethal effect at high concentrations when given just by itself | protects excellently; also recorded: very effective in protecting against glutamate-induced cell death | Week of age until which 50% of treated R6-2 mice were still alive [1]: 12 week; Uncontrollable tremor activity of R6-2 mice [1]: reduction of uncontrollable tremor activity |
| CCN(CC)C(=O)Oc1nc(-c2ccccc2Cl)nc2ccccc12 [2-Cl-MGV-3, 2-(2-chlorophenyl)quinazolin-4-yl diethylcarbamate] | 0.0026 ± 0.001 | undesired lethal effects at 50 and 100 μM both with and without glutamate exposure |  |  |
| N[C@@H](CCC(=O)O)C(=O)O [Glu, Glutamate, reference compound] |  |  |  | Differentiation of PC12 strain #1 by the agent by itself [4]: do not have this effect; Increase of NeuN expression (western blot) [5]: do not enhance NeuN expression significantly |
| CCN(C)C(=O)Oc1nc(-c2ccccc2)nc2ccccc12 [MGV-2, 2-phenylquinazolin-4-yl ethyl(methyl)carbamate] | 0.08 ± 0.011 | undesired lethal effects at high concentrations (in particular 100 μM) | protect against lethal effects of glutamate; also recorded: already quite effective at 10 μM | Effect on behavior and lifespan of R6-2 mice [1]: effects reminiscent of those of 2-Cl-MGV-1 and 2-Cl-MGV-2, but less consistent; Prevention of cardiolipin oxidation / mitochondrial ROS generation induced by glutamate (NAO) [6]: prevent cardiolipin oxidation; Prevention of collapse of the ΔΨm induced by glutamate (JC-1) [7]: prevention of the collapse of the ΔΨm |
| CCN(CC)C(=O)Oc1nc(-c2ccccc2)nc2ccccc12 [MGV-3, 2-phenylquinazolin-4-yl diethylcarbamate] | 0.0026 ± 0.001 | undesired lethal effects at high concentrations (in particular 100 μM) | protect against lethal effects of glutamate; also recorded: already quite effective at 10 μM |  |
| CCC(C)N(C)C(=O)c1cc2ccccc2c(-c2ccccc2Cl)n1 (centres unmarked) [PK 11195, N-butan-2-yl-1-(2-chlorophenyl)-N-methylisoquinoline-3-carboxamide, reference compound] |  |  |  | Effect on behavior and lifespan of R6-2 mice [1]: did not show such effects; Neuronal differentiation of PC12 cells (neurite outgrowth) [8]: can differentiate PC12 cells |
| B1 |  |  |  | Differentiation of PC12 strain #1 by the agent by itself [4]: do not have this effect; Increase of NeuN expression (western blot) [5]: do not enhance NeuN expression significantly |
